Measured values from patent US20260265251A1 (priority 2023, published 2026).

Assays:
A2058 cells = assay: A2058 cell proliferation assay; format: cell-based; conditions: Homo sapiens, 96 hours, CellTiter-Glo
SK-MEL-3 cells = assay: SK-MEL-3 cell proliferation assay; format: cell-based; conditions: Homo sapiens, SK-MEL3; SK-MEL-3 cells, 72 hours, CellTiter-Glo; read-out: SK-MEL-3 IC50

| Structure (SMILES) | IC50 (A2058 cells) | IC50 (SK-MEL-3 cells) |
| --- | --- | --- |
| O=c1[nH]c2cc3c(nc2[nH]1)CCC(c1cnn(C(F)F)c1Cl)C3 (racemic) [Example 64, 7-(5-chloro-1-(difluoromethyl)-1H-pyrazol-4-yl)-1,3,5,6,7,8-hexahydro-2H-imidazo[4,5-b]quinolin-2-one] | 0.4 nM | 0.08 nM |
| O=c1[nH]c2cc3c(nc2[nH]1)CC[C@H](c1cnn(C(F)F)c1Cl)C3 (single isomer, unassigned) [Example 64-A, (*S)-7-(5-chloro-1-(difluoromethyl)-1H-pyrazol-4-yl)-1,3,5,6,7,8-hexahdro-2H-imidazo[4,5-b]quinolin-2-one] | 0.29 nM | 0.04 nM |
| O=c1[nH]c2cc3c(nc2[nH]1)CC[C@@H](c1cnn(C(F)F)c1Cl)C3 (single isomer, unassigned) [Example 64-B, (*R)-7-(5-chloro-1-(difluoromethyl)-1H-pyrazol-4-yl)-1,3,5,6,7,8-hexahydro-2H-imidazo[4,5-b]quinolin-2-one] | 1.79 nM | 0.5 nM |
| O=c1[nH]c2cc3cc(-c4ccc(F)cc4Cl)ccc3nc2[nH]1 [Example 3, 7-(2-chloro-4-fluorophenyl)-1,3-dihydro-2H-imidazo[4,5-b]quinolin-2-one] | 1.2 nM | 0.5 nM |
| O=c1[nH]c2cc3cc(-c4cnn(C(F)F)c4Cl)ccc3nc2[nH]1 [Example 13, 7-(5-chloro-1-(difluoromethyl)-1H-pyrazol-4-yl)-1,3-dihydro-2H-imidazo[4,5-b]quinolin-2-one] | 0.1 nM | 0.03 nM |
| N#Cc1ccc(-c2ccc3nc4[nH]c(=O)[nH]c4cc3c2)c(Cl)c1 [Example 14, 7-(2-chloro-4-cyanophenyl)-1,3-dihydro-2H-imidazo[4,5-b]quinolin-2-one] | 1.1 nM | 0.3 nM |
| O=c1[nH]c2cc3cc(-c4nn(C(F)F)cc4Cl)ccc3nc2[nH]1 [Example 15, 7-(4-chloro-1-(difluoromethyl)-1H-pyrazol-3-yl)-1,3-dihydro-2H-imidazo[4,5-b]quinolin-2-one] | 3.9 nM | 0.7 nM |
| O=c1[nH]c2cc3cc(-c4ccc(C(F)(F)F)nc4Cl)ccc3nc2[nH]1 [Example 17, 7-(2-chloro-6-(trifluoromethyl)pyridin-3-yl)-1,3-dihydro-2H-imidazo[4,5-b]quinolin-2-one] | 11 nM | 1.1 nM |
| O=c1[nH]c2cc3c(nc2[nH]1)CCN(c1ccc(F)cc1Cl)C3 [Example 21, 7-(2-chloro-4-fluorophenyl)-1,3,5,6,7,8-hexahydro-2H-imidazo[4,5-b][1,6]naphthyridin-2-one] | 38.4 nM | 4.5 nM |
| N#Cc1ccc(N2CCc3nc4[nH]c(=O)[nH]c4cc3C2)c(Cl)c1 [Example 22, 7-(2-chloro-4-cyanophenyl)-1,3,5,6,7,8-hexahydro-2H-imidazo[4,5-b][1,6]naphthyridin-2-one] | 11.9 nM | 1.6 nM |
| O=c1[nH]c2cc3cc(-c4ncn(C(F)F)c4Cl)ccc3nc2[nH]1 [Example 37, 7-(5-chloro-1-(difluoromethyl)-1H-imidazol-4-yl)-1,3-dihydro-2H-imidazo[4,5-b]quinolin-2-one] | 1 nM | – |
| O=c1[nH]c2cc3cc(-c4ccc(Cl)nc4OC(F)F)ccc3nc2[nH]1 [Example 39, 7-(6-chloro-2-(difluoromethoxy)pyridin-3-yl)-1,3-dihydro-2H-imidazo[4,5-b]quinolin-2-one] | 3.3 nM | – |
| CNc1ccc(-c2ccc3nc4[nH]c(=O)[nH]c4cc3c2)c(Cl)n1 [Example 40, 7-(2-chloro-6-(methylamino)pyridin-3-yl)-1,3-dihydro-2H-imidazo[4,5-b]quinolin-2-one] | 8 nM | – |
| CNc1nc(Cl)ccc1-c1ccc2nc3[nH]c(=O)[nH]c3cc2c1 [Example 41, 7-(6-chloro-2-(methylamino)pyridin-3-yl)-1,3-dihydro-2H-imidazo[4,5-b]quinolin-2-one] | 61 nM | – |
| O=c1[nH]c2cc3cc(-c4cnn(C(F)F)c4OC(F)F)ccc3nc2[nH]1 [Example 42, 7-(5-(difluoromethoxy)-1-(difluoromethyl)-1H-pyrazol-4-yl)-1,3-dihydro-2H-imidazo[4,5-b]quinolin-2-one] | 0.4 nM | – |
| [2H]C([2H])([2H])c1c(-c2ccc3nc4[nH]c(=O)[nH]c4cc3c2)cnn1C(F)F [Example 45, 7-(1-(difluoromethyl)-5-(methyl-d3)-1H-pyrazol-4-yl)-1,3-dihydro-2H-imidazo[4,5-b]quinolin-2-one] | 0.19 nM | – |
| O=c1[nH]c2cc3c(nc2[nH]1)CCC(c1ccc(F)cc1)C3 (stereo not drawn) [Example 57, 7-(4-fluorophenyl)-1,3,5,6,7,8-hexahydro-2H-imidazo[4,5-b]quinolin-2-one] | 32.2 nM | – |
| O=c1[nH]c2cc3c(nc2[nH]1)CCN(c1nc(C(F)(F)F)ccc1F)C3 [Example 60, 7-(3-fluoro-6-(trifluoromethyl)pyridin-2-yl)-1,3,5,6,7,8-hexahydro-2H-imidazo[4,5-b][1,6]naphthyridin-2-one] | 1.7 nM | – |
| O=c1[nH]c2cc3c(nc2[nH]1)CCN(c1ccc(F)c(C(F)(F)F)n1)C3 [Example 61, 7-(5-fluoro-6-(trifluoromethyl)pyridin-2-yl)-1,3,5,6,7,8-hexahydro-2H-imidazo[4,5-b][1,6]naphthyridin-2-one] | 1.9 nM | – |

| Structure (SMILES) | IC50 (A2058 cells) | IC50 (SK-MEL-3 cells) |
| --- | --- | --- |
| O=c1[nH]c2cc3c(nc2[nH]1)CCN(c1ccc(Cl)nc1C(F)(F)F)C3 [Example 62, 7-(6-chloro-2-(trifluoromethyl)pyridin-3-yl)-1,3,5,6,7,8-hexahydro-2H-imidazo[4,5-b][1,6]naphthyridin-2-one] | 31.9 nM | – |
| O=c1[nH]c2cc3c(nc2[nH]1)CCC(c1cn(C(F)F)nc1Cl)C3 (stereo not drawn) [Example 63, 7-(3-chloro-1-(difluoromethyl)-1H-pyrazol-4-yl)-1,3,5,6,7,8-hexahydro-2H-imidazo[4,5-b]quinolin-2-one] | 8.1 nM | – |
| COc1c(-c2ccc(F)cc2)ccc2nc3[nH]c(=O)[nH]c3cc12 [Example 78, 8-(methoxy)-7-(4-fluorophenyl)-1,3-dihydro-2H-imidazo[4,5-b]quinolin-2-one] | – | 0.9 nM |
| Cc1ccc(-c2ccc3nc4[nH]c(=O)[nH]c4cc3c2C(F)(F)F)cc1 [Example 79, 7-(p-tolyl)-8-(trifluoromethyl)-1,3-dihydro-2H-imidazo[4,5-b]quinolin-2-one] | – | 0.4 nM |
| O=c1[nH]c2cc3c(C(F)(F)F)c(-c4ccccc4)ccc3nc2[nH]1 [Example 80, 7-phenyl-8-(trifluoromethyl)-1,3-dihydro-2H-imidazo[4,5-b]quinolin-2-one] | – | 0.5 nM |
| O=c1[nH]c2cc3c(Cl)c(N4CCC5(CC4)CC5)ccc3nc2[nH]1 [Example 81, 8-chloro-7-(6-azaspiro[2.5]octan-6-yl)-1,3-dihydro-2H-imidazo[4,5-b]quinolin-2-one] | – | 9.7 nM |
| CCC1=CCN(c2ccc3nc4[nH]c(=O)[nH]c4cc3c2Cl)CC1 [Example 82, 8-chloro-7-(4-ethyl-3,6-dihydropyridin-1(2H)-yl)-1,3-dihydro-2H-imidazo[4,5-b]quinolin-2-one] | – | 509 nM |
| O=c1[nH]c2cc3c(Cl)c(-c4ccc(F)cc4Cl)ccc3nc2[nH]1 [Example 83, 8-chloro-7-(2-chloro-4-fluorophenyl)-1,3-dihydro-2H-imidazo[4,5-b]quinolin-2-one] | – | 0.4 nM |
| O=c1[nH]c2cc3c(C(F)(F)F)c(-c4ccc(F)cc4)ccc3nc2[nH]1 [Example 84, 7-(4-fluorophenyl)-8-(trifluoromethyl)-1,3-dihydro-2H-imidazo[4,5-b]quinolin-2-one] | – | 1.2 nM |
| COc1c(-c2ccc(F)cc2Cl)ccc2nc3[nH]c(=O)[nH]c3cc12 [Example 85, 7-(2-chloro-4-fluorophenyl)-8-methoxy-1,3-dihydro-2H-imidazo[4,5-b]quinolin-2-one] | – | 0.3 nM |
| O=c1[nH]c2cc3c(Cl)c(-c4cn(C(F)F)nc4Cl)ccc3nc2[nH]1 [Example 87, 8-chloro-7-(3-chloro-1-(difluoromethyl)-1H-pyrazol-4-yl)-1,3-dihydro-2H-imidazo[4,5-b]quinolin-2-one] | 2 nM | – |
| O=c1[nH]c2cc3cc(-c4cnn(C(F)F)c4Cl)c(Cl)cc3nc2[nH]1 [Example 88, 6-chloro-7-(5-chloro-1-(difluoromethyl)-1H-pyrazol-4-yl)-1,3-dihydro-2H-imidazo[4,5-b]quinolin-2-one] | 9.1 nM | – |
| O=c1[nH]c2cc3cc(-c4cn(C(F)F)nc4Cl)c(Cl)cc3nc2[nH]1 [Example 89, 6-chloro-7-(3-chloro-1-(difluoromethyl)-1H-pyrazol-4-yl)-1,3-dihydro-2H-imidazo[4,5-b]quinolin-2-one] | 18.8 nM | – |
| O=c1[nH]c2cc3c(Cl)c(-n4ccc(C(F)(F)F)n4)ccc3nc2[nH]1 [Example 90, 8-chloro-7-(3-(trifluoromethyl)-1H-pyrazol-1-yl)-1,3-dihydro-2H-imidazo[4,5-b]quinolin-2-one] | – | 3.4 nM |
| COc1ncc(N2CCc3nc4[nH]c(=O)[nH]c4cc3C2)cc1C(F)(F)F [Example 91, 7-(6-methoxy-5-(trifluoromethyl)pyridin-3-yl)-1,3,5,6,7,8-hexahydro-2H-imidazo[4,5-b][1,6]naphthyridin-2-one] | – | 281 nM |
| Cc1ccc(-c2ccc3nc4[nH]c(=O)[nH]c4nc3c2Cl)cc1 [Example 92, 5-chloro-6-(p-tolyl)-1,3-dihydro-2H-imidazo[4,5-b]quinoxalin-2-one] | – | 88.2 nM |
| Cn1c(=O)[nH]c2nc3ccc(-c4ccc(F)cc4)c(Cl)c3cc21 [Example 93, 8-chloro-7-(4-fluorophenyl)-1-methyl-1,3-dihydro-2H-imidazo[4,5-b]quinolin-2-one] | – | 8.7 nM |
| Cc1ccc(-c2ccc3nc4[nH]c(=O)oc4cc3c2Cl)cc1 [Example 94, 8-chloro-7-(p-tolyl)oxazolo[4,5-b]quinolin-2(3H)-one] | – | 258 nM |
| Cc1ccc(-c2ccc3nc4c(cc3c2Cl)C(=O)C(=O)N4)cc1 [Example 95, 5-chloro-6-(p-tolyl)-1H-pyrrolo[2,3-b]quinolin-2,3-dione] | – | 55.5 nM |
